Some targets named below: PIM3 (Homo sapiens, UniProt Q86V86); SLK (Homo sapiens, UniProt Q9H2G2); CDKL1 (Homo sapiens, UniProt Q00532); EphA4 (Homo sapiens, UniProt P54764).
Settings in all cases: binder
For the next assay, the target named is T1, MER (Homo sapiens, UniProt Q12866).
T1 sequence (Q12866 1-999): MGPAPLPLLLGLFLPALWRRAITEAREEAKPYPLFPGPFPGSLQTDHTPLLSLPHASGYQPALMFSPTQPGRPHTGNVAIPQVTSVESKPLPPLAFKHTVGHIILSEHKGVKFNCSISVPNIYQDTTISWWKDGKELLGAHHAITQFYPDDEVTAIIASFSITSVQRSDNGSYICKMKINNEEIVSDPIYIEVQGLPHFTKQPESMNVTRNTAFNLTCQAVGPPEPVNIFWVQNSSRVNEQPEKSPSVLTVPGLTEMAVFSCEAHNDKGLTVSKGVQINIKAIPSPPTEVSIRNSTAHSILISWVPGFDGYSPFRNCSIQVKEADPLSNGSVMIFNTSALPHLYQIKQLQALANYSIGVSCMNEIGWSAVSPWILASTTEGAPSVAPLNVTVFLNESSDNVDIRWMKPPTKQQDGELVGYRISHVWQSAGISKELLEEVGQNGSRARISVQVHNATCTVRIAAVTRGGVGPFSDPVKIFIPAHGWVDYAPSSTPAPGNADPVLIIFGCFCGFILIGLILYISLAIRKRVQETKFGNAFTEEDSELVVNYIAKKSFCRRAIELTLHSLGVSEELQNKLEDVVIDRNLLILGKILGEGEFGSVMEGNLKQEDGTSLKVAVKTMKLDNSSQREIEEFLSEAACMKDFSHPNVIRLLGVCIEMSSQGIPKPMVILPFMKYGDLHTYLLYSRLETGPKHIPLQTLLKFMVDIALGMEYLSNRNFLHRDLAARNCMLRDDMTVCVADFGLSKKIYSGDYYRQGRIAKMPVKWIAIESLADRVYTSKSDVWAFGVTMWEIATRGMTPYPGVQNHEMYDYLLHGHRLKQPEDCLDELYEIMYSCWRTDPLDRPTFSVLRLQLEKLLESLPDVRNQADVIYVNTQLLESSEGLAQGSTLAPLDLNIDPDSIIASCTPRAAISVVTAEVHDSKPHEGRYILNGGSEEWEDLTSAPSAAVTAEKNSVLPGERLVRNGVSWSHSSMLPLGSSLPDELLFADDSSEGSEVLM

Another assay addresses T2, BMPR2 (Homo sapiens, UniProt Q13873).
T2 sequence (Q13873 1-1038): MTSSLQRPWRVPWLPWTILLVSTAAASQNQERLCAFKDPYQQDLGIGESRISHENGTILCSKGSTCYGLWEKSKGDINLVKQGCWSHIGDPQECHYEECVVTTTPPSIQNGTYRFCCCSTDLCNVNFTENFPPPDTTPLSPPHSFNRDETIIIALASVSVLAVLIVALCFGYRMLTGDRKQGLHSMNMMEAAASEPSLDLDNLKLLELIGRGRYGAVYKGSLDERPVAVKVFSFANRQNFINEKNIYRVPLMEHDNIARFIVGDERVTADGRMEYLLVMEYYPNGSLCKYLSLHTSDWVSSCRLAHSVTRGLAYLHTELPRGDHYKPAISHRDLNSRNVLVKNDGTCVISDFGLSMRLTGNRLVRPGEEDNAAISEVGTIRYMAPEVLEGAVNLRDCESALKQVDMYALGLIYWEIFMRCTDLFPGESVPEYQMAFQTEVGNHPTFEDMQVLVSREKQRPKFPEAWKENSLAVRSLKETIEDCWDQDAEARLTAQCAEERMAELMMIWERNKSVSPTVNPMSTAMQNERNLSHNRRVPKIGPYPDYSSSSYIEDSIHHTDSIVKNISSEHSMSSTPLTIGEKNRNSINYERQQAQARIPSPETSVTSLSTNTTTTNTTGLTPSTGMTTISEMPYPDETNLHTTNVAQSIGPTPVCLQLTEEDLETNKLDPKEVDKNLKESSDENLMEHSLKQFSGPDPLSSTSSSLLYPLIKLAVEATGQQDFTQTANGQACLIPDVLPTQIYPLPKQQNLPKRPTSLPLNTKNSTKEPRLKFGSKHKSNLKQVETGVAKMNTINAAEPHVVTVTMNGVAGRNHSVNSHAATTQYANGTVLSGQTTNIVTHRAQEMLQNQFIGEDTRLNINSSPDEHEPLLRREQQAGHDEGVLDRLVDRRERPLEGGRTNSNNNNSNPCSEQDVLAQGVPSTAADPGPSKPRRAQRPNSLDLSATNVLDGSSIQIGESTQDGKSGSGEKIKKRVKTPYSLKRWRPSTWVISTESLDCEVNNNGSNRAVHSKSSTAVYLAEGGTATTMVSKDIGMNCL

Each structure is given as a SMILES string.

SLK, sequence (Q9H2G2 whole entry): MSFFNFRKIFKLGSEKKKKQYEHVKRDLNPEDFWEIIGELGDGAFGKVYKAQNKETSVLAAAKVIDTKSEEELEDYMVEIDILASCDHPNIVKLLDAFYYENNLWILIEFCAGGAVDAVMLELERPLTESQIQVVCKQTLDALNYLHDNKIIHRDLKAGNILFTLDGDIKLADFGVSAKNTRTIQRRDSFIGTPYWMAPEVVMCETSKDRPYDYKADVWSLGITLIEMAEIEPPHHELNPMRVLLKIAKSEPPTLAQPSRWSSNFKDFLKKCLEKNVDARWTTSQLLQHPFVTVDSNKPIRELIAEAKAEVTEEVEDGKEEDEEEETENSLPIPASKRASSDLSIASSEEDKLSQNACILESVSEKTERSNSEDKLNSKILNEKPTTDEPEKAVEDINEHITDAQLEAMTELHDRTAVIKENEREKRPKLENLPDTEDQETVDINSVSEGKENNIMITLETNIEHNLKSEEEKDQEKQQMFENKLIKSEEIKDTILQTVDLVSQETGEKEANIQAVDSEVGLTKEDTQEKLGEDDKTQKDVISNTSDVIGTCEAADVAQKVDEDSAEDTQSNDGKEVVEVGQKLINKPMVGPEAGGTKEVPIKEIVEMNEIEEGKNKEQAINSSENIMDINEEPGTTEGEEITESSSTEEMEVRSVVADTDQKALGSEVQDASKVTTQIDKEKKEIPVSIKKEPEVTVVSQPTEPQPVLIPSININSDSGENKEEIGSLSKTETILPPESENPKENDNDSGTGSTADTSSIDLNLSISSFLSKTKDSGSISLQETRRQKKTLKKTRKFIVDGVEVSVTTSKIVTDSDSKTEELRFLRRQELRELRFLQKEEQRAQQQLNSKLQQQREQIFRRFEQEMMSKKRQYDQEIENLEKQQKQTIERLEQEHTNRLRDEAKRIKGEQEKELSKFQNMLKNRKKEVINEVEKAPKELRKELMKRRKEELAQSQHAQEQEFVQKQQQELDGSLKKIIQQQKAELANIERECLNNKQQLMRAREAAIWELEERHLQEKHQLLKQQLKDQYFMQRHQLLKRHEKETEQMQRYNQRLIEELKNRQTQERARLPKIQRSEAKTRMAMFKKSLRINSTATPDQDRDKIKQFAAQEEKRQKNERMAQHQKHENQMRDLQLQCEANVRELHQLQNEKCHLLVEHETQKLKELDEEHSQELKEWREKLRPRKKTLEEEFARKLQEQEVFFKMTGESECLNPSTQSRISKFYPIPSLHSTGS
CDKL1, sequence (Q00532 whole entry): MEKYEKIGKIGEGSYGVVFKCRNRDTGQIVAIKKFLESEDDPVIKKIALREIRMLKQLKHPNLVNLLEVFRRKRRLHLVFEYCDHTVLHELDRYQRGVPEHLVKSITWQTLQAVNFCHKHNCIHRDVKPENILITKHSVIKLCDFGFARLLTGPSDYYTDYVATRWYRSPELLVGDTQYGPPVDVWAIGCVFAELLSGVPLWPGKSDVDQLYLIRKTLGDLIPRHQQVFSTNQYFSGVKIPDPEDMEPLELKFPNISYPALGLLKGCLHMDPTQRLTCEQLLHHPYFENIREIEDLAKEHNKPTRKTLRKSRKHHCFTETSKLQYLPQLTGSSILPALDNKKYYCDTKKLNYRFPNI
EphA4, sequence (P54764 whole entry): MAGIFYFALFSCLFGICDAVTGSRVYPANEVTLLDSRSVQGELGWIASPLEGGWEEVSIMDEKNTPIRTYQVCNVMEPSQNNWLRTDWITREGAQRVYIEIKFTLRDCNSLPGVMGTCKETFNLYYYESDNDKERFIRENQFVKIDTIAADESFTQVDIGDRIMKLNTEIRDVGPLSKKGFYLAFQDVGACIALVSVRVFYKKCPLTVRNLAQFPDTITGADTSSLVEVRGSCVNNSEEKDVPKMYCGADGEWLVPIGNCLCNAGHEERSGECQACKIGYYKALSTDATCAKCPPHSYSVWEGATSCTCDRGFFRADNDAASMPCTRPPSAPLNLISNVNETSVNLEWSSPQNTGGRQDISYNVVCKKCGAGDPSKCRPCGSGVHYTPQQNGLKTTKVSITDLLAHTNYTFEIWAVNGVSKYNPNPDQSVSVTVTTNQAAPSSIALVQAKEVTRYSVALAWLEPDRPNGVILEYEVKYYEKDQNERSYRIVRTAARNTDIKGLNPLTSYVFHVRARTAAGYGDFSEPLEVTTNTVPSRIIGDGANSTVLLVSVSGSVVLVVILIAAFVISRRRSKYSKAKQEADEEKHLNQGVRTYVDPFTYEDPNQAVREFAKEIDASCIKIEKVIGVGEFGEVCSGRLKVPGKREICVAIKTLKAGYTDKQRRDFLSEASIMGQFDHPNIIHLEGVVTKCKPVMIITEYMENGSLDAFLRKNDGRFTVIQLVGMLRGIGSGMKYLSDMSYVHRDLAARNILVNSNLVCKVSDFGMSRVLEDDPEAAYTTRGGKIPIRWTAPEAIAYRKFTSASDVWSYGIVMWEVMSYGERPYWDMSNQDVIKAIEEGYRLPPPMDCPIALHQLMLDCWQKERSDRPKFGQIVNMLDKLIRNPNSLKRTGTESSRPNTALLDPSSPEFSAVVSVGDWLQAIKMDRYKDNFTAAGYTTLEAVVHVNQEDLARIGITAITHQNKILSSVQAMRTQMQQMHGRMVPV

On to `COc1cc(N2CCN(C)CC2)ccc1Nc1ncc2cc(-c3ccc(-c4cccc(C)n4)cc3Cl)c(=O)n(CCCCN)c2n1` [compound 36, 8-(4-Aminobutyl)-6-(2-chloro-4-(6-methylpyridin-2-yl)phenyl)-2-((2-methoxy-4-(4-methylpiperazin-1-yl)phenyl)amino)pyrido[2,3-d]pyrimidin-7(8H)-one], for which the “dTm 36” value at PIM3 is -2.1 °C; on MER it was -0.2 °C; at SLK it was 4.2 °C; on CDKL1, 0.8 °C; at BMPR2, -0.2 °C; at EphA4 it was 2.4 °C.
For `COc1ccc(O)c(Nc2ncc3cc(-c4ccc(-c5cccc(C)n5)cc4Cl)c(=O)n(CCCCN)c3n2)c1` [compound 34, 8-(4-Aminobutyl)-6-(2-chloro-4-(6-methylpyridin-2-yl)phenyl)-2-((2-hydroxy-5-methoxy-phenyl)amino)pyrido[2,3-d]pyrimidin-7(8H)-one], the “dTm 34” value was determined as 2.4 °C at PIM3; 0.1 °C at MER; 4.7 °C at SLK; 1.5 °C at CDKL1; 0.0 °C on BMPR2; 2.5 °C on EphA4.
As for `COc1cc(N2CCOCC2)ccc1Nc1ncc2cc(-c3ccc(-c4cccc(C)n4)cc3Cl)c(=O)n(CCCCN)c2n1` [compound 35, 8-(4-Aminobutyl)-6-(2-chloro-4-(6-methylpyridin-2-yl)phenyl)-2-((2-methoxy-4-morpholino-phenyl)amino)pyrido[2,3-d]pyrimidin-7(8H)-one], the “dTm 35” value at PIM3 was -2.4 °C; on MER, 0.0 °C; on SLK, 5.1 °C; at CDKL1, 0.3 °C; at BMPR2, -1.0 °C; on EphA4 it was 2.7 °C.
Regarding `Cc1cccc(-c2ccc(-c3cc4cnc(Nc5ccc(F)c(CO)c5)nc4n(CCCCN)c3=O)c(Cl)c2)n1` [compound 33, 8-(4-Aminobutyl)-6-(2-chloro-4-(6-methylpyridin-2-yl)phenyl)-2-((4-fluoro-3-(hydroxymethyl)phenyl)amino)pyrido[2,3-d]pyrimidin-7(8H)-one], the “dTm 33” value on PIM3 was 4.6 °C; on MER, 3.1 °C; at SLK it was 8.0 °C; at CDKL1 it was 2.0 °C; on BMPR2, -0.1 °C; on EphA4, 3.5 °C.

Source of the values: article doi:10.1101/2023.11.24.568596v1 (biorxiv, 2023).
